In experiment [1] the test system is subjects with pain associated with diabetic neuropathy. Kind of experiment: 12-week clinical study, Daily Pain Numeric Rating Scale (NRS). The experiment is classed as in vivo, human. How it is done: (§1) To determine the effect of ZLT-L-007 in subjects with pain associated with diabetic neuropathy, an observational 12-week clinical study to evaluate the efficacy, safety and tolerability of ZLT-L-007 versus Pregabalin (300 Mg/Day) was conducted.
Primary endpoints of the study included: 1. Recording Daily Pain Numeric Rating Scale (NRS) at Baseline, Day 30, Day 60, and Day 90.
Three groups were used to evaluate the effect of ZLT-L-007 in subjects with pain associated with diabetic neuropathy: Group 1 (Pregabalin), Group 2 (ZLT-L-007 pharmaceutical composition+terpene composition), and Group 3 (Pregabalin and ZLT-L-007 pharmaceutical composition+terpene composition). More detailed information regarding each group's treatment is provided below.
Group 3 subjects were already taking pregabalin/Lyrica® at the prescribed dose recommended by their doctor. Subjects then received one capsule by mouth twice daily of the ZLT-L-007 pharmaceutical composition. Participants were also given one capsule by mouth twice daily of a terpene composition that comprised 0.25 mg of myrcene and 0.25 mg of linalool.
Group 3 was administered one capsule by mouth twice daily of the ZLT-L-007 pharmaceutical composition.. Participants were also given one capsule by mouth twice daily of a terpene composition that comprised 0.25 mg of myrcene and 0.25 mg of linalool.

Experiment [2] has the same test system. Kind of experiment: 12-week clinical study, pain Visual Analog Scale (VAS). The experiment is classed as in vivo, human. To be noted: Day 30, Day 60, Day 90. How it is done:
as §1

Data on one compound can be found in patent US20250186466A1, “ZLT-007 AND METHODS OF TREATING DIABETIC NEUROPATHY” (IIere Therapeutics LLC, priority 2022, published 2025).

SMILES strings stand for the structures.

For the compound `CC(C)C[C@H](CN)CC(=O)O` [Pregabalin], the “NRS Severity, median percent change from baseline” value is −33.33% in experiment [1] (30-day follow-up, ZLT-L-007 one capsule by mouth twice daily plus terpene capsule); −20.00% in experiment [1] (60-day follow-up); −35.00% in experiment [1] (90-day follow-up). In addition, in experiment [1] (all follow-up periods), the “NRS Severity, median percent change from baseline, range” value was −20.00% to −35.00%. Besides, the “VAS pain severity, median percent change from baseline, range” value in experiment [2] is on record as −33.33% to −35.00%.
